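Exposure lasted 48 hours, with cells grown in 96-well plates and compounds tested at five concentrations. GI50 = concentration required for 50% inhibition of growth.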 Activity calls are given as the source filed them. Rule as the data show it: active = GI50 up to about 1.1 µM and inactive = higher.
Tests used:
Assay in all cases: NCI tumour cell line growth inhibition, 48 h
[1] = tested on: NCI-H522
[2] = tested on: SN12C
[3] = tested on: HCC 2998
[4] = tested on: OVCAR-5
[5] = tested on: UACC-62
[6] = tested on: U-251
[7] = tested on: SF-539
[8] = tested on: NCI-H23
[9] = tested on: Malme-3M
[10] = tested on: NCI-H226
[11] = tested on: MDA-MB-231
[12] = tested on: SK-MEL-5
[13] = tested on: IGROV-1
[14] = tested on: NCI/ADR-RES
[15] = tested on: HT-29
[16] = tested on: A498
[17] = tested on: COLO 205
[18] = tested on: LOX IMVI
[19] = tested on: MDA-N

Compound	GI50 [1]	GI50 [2]	GI50 [3]	GI50 [4]	GI50 [5]	GI50 [6]	GI50 [7]	GI50 [8]	GI50 [9]	GI50 [10]	GI50 [11]	GI50 [12]	GI50 [13]	GI50 [14]	GI50 [15]	GI50 [16]	GI50 [17]	GI50 [18]	GI50 [19]
N#Cc1c(N2CCN(c3ccc([N+](=O)[O-])cc3)CC2)[n+]([O-])c2ccc(Cl)cc2[n+]1[O-]	0.721 µM (active)	0.966 µM (active)	0.944 µM (active)	3.4 µM (inactive)	1.18 µM (inactive)	0.738 µM (active)	1.15 µM (inactive)	1.71 µM (inactive)	2 µM (inactive)	2.29 µM (inactive)	1.04 µM (active)	6.38 µM (inactive)	0.318 µM (active)	1.07 µM (active)	1.31 µM (inactive)	0.575 µM (active)	3.24 µM (inactive)	0.459 µM (active)	1.75 µM (inactive)
Cc1ccc2c(c1)-c1c(C#N)c(N)nc(-c3ccc(Cl)cc3)c1CCS2(=O)=O	2.14 µM (inactive)	10.9 µM (inactive)	6.7 µM (inactive)	49.9 µM (inactive)	4.37 µM (inactive)	7.14 µM (inactive)	3.77 µM (inactive)	7.23 µM (inactive)	5.07 µM (inactive)	28.6 µM (inactive)	12.3 µM (inactive)	4.32 µM (inactive)	5.43 µM (inactive)	4.48 µM (inactive)	3.61 µM (inactive)	17.2 µM (inactive)	4.55 µM (inactive)	10.1 µM (inactive)	1.65 µM (inactive)
C=C1[C@H](OC(=O)C(C)C)[C@@H](OC(C)=O)[C@@H](OC(C)=O)C(C)(C)[C@@H]2O[C@H]2[C@@H](C)C(=O)[C@@]2(OC(C)=O)C[C@@](C)(OC(C)=O)[C@H](OC(C)=O)[C@@H]2[C@H]1OC(C)=O	> 100 µM (inactive)	> 100 µM (inactive)	> 100 µM (inactive)	> 100 µM (inactive)	> 100 µM (inactive)	> 100 µM (inactive)	> 100 µM (inactive)	> 100 µM (inactive)	> 100 µM (inactive)	> 100 µM (inactive)	> 100 µM (inactive)	> 100 µM (inactive)	> 100 µM (inactive)	> 100 µM (inactive)	> 100 µM (inactive)	> 100 µM (inactive)	> 100 µM (inactive)	> 100 µM (inactive)	> 100 µM (inactive)
CC12OOC(c3ccccc31)c1c2ccc2ccccc12 (stereo not given)	0.843 µM (active)	15.8 µM (inactive)	5.05 µM (inactive)	19.5 µM (inactive)	8.26 µM (inactive)	14.7 µM (inactive)	8.15 µM (inactive)	11.4 µM (inactive)	2.3 µM (inactive)	18.7 µM (inactive)	12 µM (inactive)	8.53 µM (inactive)	1.53 µM (inactive)	10 µM (inactive)	2.62 µM (inactive)	17.6 µM (inactive)	1.71 µM (inactive)	2.12 µM (inactive)	5.53 µM (inactive)
COC(=O)[C@@H]1[C@H]2CC[C@]3(C)[C@@H](OC(C)=O)CC[C@H]3[C@@H]2CC[C@H]1C1(C)SCCS1	30.5 µM (inactive)	18.5 µM (inactive)	35.6 µM (inactive)	22.8 µM (inactive)	28.2 µM (inactive)	23.6 µM (inactive)	37 µM (inactive)	37.2 µM (inactive)	18.9 µM (inactive)	23.9 µM (inactive)	17.1 µM (inactive)	8.77 µM (inactive)	49.2 µM (inactive)	20.4 µM (inactive)	15 µM (inactive)	57.5 µM (inactive)	13.5 µM (inactive)	19.4 µM (inactive)	22 µM (inactive)
COc1ccc(C(OC(=O)[C@H](O[Si](C)(C)C(C)(C)C)[C@@H](NC(=O)c2ccccc2)c2ccccc2)c2ccc(OC)cc2)cc1	> 100 µM (inactive)	> 100 µM (inactive)	68.1 µM (inactive)	> 100 µM (inactive)	> 100 µM (inactive)	> 100 µM (inactive)	> 100 µM (inactive)	> 100 µM (inactive)	> 100 µM (inactive)	> 100 µM (inactive)	48.3 µM (inactive)	77.1 µM (inactive)	> 100 µM (inactive)	> 100 µM (inactive)	> 100 µM (inactive)	> 100 µM (inactive)	> 100 µM (inactive)	> 100 µM (inactive)	> 100 µM (inactive)
O=C(N[C@H]1CCC[C@H]1C(=O)Nc1ccc(C(F)(F)F)cc1)OCc1ccccc1	54.2 µM (inactive)	> 100 µM (inactive)	> 100 µM (inactive)	> 100 µM (inactive)	> 100 µM (inactive)	> 100 µM (inactive)	> 100 µM (inactive)	> 100 µM (inactive)	> 100 µM (inactive)	65.3 µM (inactive)	> 100 µM (inactive)	> 100 µM (inactive)	> 100 µM (inactive)	> 100 µM (inactive)	> 100 µM (inactive)	> 100 µM (inactive)	> 100 µM (inactive)	> 100 µM (inactive)	> 100 µM (inactive)
Oc1c2cc(Br)cc1CCc1cc(Br)cc(c1O)CC2	14.4 µM (inactive)	41.9 µM (inactive)	15.3 µM (inactive)	23.2 µM (inactive)	18.6 µM (inactive)	23.6 µM (inactive)	28.4 µM (inactive)	28.6 µM (inactive)	28.8 µM (inactive)	16.3 µM (inactive)	14 µM (inactive)	13.6 µM (inactive)	38.2 µM (inactive)	21.6 µM (inactive)	15.6 µM (inactive)	31.8 µM (inactive)	14.4 µM (inactive)	16.2 µM (inactive)	30.1 µM (inactive)
O=C(c1ccccc1)N1C(=S)N(c2ccccn2)C(=N/c2ccccc2)/C1=N\c1ccccc1	2.16 µM (inactive)	31.5 µM (inactive)	> 93.5 µM (inactive)	11.2 µM (inactive)	11.2 µM (inactive)	8.11 µM (inactive)	12.9 µM (inactive)	6.4 µM (inactive)	20 µM (inactive)	> 69.3 µM (inactive)	23.3 µM (inactive)	19.1 µM (inactive)	13 µM (inactive)	10.5 µM (inactive)	11.5 µM (inactive)	> 66.5 µM (inactive)	28.8 µM (inactive)	12.4 µM (inactive)	11.4 µM (inactive)
N#CC1=C(S)N(C2OC(CO)C(O)C(O)C2O)C(c2ccccc2)=CC1c1cccs1 (stereo not given)	18.1 µM (inactive)	14.7 µM (inactive)	21.7 µM (inactive)	51.1 µM (inactive)	18.8 µM (inactive)	20 µM (inactive)	18.6 µM (inactive)	28.1 µM (inactive)	19.3 µM (inactive)	16.6 µM (inactive)	27.2 µM (inactive)	14.1 µM (inactive)	22.6 µM (inactive)	> 100 µM (inactive)	17 µM (inactive)	> 10 µM (inactive)	21.1 µM (inactive)	18.7 µM (inactive)	15.4 µM (inactive)
